Test results from ChEMBL document CHEMBL1201862, “PubChem BioAssay data set” (2004).
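Tested at 5 concentrations; 48 h exposure; 96-well plates; endpoints linearly interpolated, else capped at highest concentration. GI50 = concentration required for 50% inhibition of growth.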 The source made the active and inactive calls. Cut-off read from the data, not from the text of the source: active = GI50 up to about 1.1 µM and inactive = higher. Square brackets hold non-standard residues; d marks the D form. Peptide text beside a SMILES is read from it. * marks the point of attachment. ξ: configuration not given here. ξD = NC(CC(=O)O)C(=O)O; Ac3c = NC1(C(=O)O)CC1; Boc = CC(C)(C)OC(=O)*; OtBu = CC(C)(C)O*

What was measured:
Experiment in all cases: NCI anticancer screen, dose series, 48 h
HT-29 = system: HT-29
NCI-H23 = system: NCI-H23
786-0 = system: 786-0
OVCAR-4 = system: OVCAR-4
NCI/ADR-RES = system: NCI/ADR-RES
DU-145 = system: DU-145
MDA-N = system: MDA-N
PC-3 = system: PC-3
ACHN = system: ACHN
SF-295 = system: SF-295
SW-620 = system: SW-620
SK-MEL-2 = system: SK-MEL-2
SK-MEL-28 = system: SK-MEL-28
HCT-116 = system: HCT-116
COLO 205 = system: COLO 205
RPMI-8226 = system: RPMI-8226
HCT-15 = system: HCT-15
OVCAR-3 = system: OVCAR-3
NCI-H522 = system: NCI-H522
HOP-62 = system: HOP-62

Row | Compound | GI50 (HT-29) | GI50 (NCI-H23) | GI50 (786-0) | GI50 (OVCAR-4) | GI50 (NCI/ADR-RES) | GI50 (DU-145) | GI50 (MDA-N) | GI50 (PC-3) | GI50 (ACHN) | GI50 (SF-295) | GI50 (SW-620) | GI50 (SK-MEL-2) | GI50 (SK-MEL-28) | GI50 (HCT-116) | GI50 (COLO 205) | GI50 (RPMI-8226) | GI50 (HCT-15) [µM] | GI50 (OVCAR-3) | GI50 (NCI-H522) | GI50 (HOP-62)
1 | CCCCN1CSC(=S)N(Cc2ccccc2)C1 | 58.6 µM (inactive) | 42.6 µM (inactive) | 34.4 µM (inactive) | 56.8 µM (inactive) | 54.3 µM (inactive) | 69.3 µM (inactive) | 37.6 µM (inactive) | 63.5 µM (inactive) | > 100 µM (inactive) | 48.1 µM (inactive) | 37.8 µM (inactive) | > 59.3 µM (inactive) | > 100 µM (inactive) | 35.4 µM (inactive) | 23.2 µM (inactive) | 24.9 µM (inactive) | 58.2 | 33.7 µM (inactive) | 23.9 µM (inactive) | > 100 µM (inactive)
2 | CC(=O)N(C(C)=O)n1nc2c(n1)C(=O)c1ccccc1C2=O | > 100 µM (inactive) | > 100 µM (inactive) | > 100 µM (inactive) | > 100 µM (inactive) | > 100 µM (inactive) | > 100 µM (inactive) | > 100 µM (inactive) | > 100 µM (inactive) | > 100 µM (inactive) | > 100 µM (inactive) | > 100 µM (inactive) | > 100 µM (inactive) | > 100 µM (inactive) | > 100 µM (inactive) | > 100 µM (inactive) | > 100 µM (inactive) | > 100 | 28.1 µM (inactive) | > 100 µM (inactive) | > 100 µM (inactive)
3 | COc1cc2c(cc1OCc1ccccc1)NC(=S)[C@@H]1CCCN1C2=S | 18.2 µM (inactive) | > 100 µM (inactive) | 88.1 µM (inactive) | 4.09 µM (inactive) | > 100 µM (inactive) | > 100 µM (inactive) | > 100 µM (inactive) | > 100 µM (inactive) | > 100 µM (inactive) | 37.5 µM (inactive) | > 100 µM (inactive) | > 100 µM (inactive) | > 100 µM (inactive) | > 100 µM (inactive) | > 100 µM (inactive) | > 100 µM (inactive) | > 100 | 43.1 µM (inactive) | 71.6 µM (inactive) | 5.85 µM (inactive)
4 | Cc1ccc(S(=O)(=O)n2cncc2CO)cc1 | > 100 µM (inactive) | > 100 µM (inactive) | > 100 µM (inactive) | > 100 µM (inactive) | > 100 µM (inactive) | > 100 µM (inactive) | > 100 µM (inactive) | > 100 µM (inactive) | > 100 µM (inactive) | > 100 µM (inactive) | > 100 µM (inactive) | > 100 µM (inactive) | > 100 µM (inactive) | > 100 µM (inactive) | > 100 µM (inactive) | > 100 µM (inactive) | > 100 | > 100 µM (inactive) | > 100 µM (inactive) | > 100 µM (inactive)
5 | CN(C)c1ccc(/C=C/C(=O)N[C@@H]2C(=O)N3[C@@H]2SC(C)(C)[C@@H]3C(=O)O)cc1 | > 100 µM (inactive) | > 100 µM (inactive) | > 100 µM (inactive) | > 100 µM (inactive) | > 100 µM (inactive) | > 100 µM (inactive) | > 100 µM (inactive) | > 100 µM (inactive) | > 100 µM (inactive) | > 100 µM (inactive) | > 100 µM (inactive) | > 100 µM (inactive) | > 100 µM (inactive) | 58.9 µM (inactive) | > 100 µM (inactive) | > 100 µM (inactive) | > 100 | > 100 µM (inactive) | > 100 µM (inactive) | > 100 µM (inactive)
6 | COC(=O)C1(NC(=O)C(CC(=O)OC(C)(C)C)NC(=O)OC(C)(C)C)CC1 (stereo not given) (Boc-[ξD](OtBu)-[Ac3c]-OMe) | > 100 µM (inactive) | > 100 µM (inactive) | > 100 µM (inactive) | > 100 µM (inactive) | > 100 µM (inactive) | > 100 µM (inactive) | > 100 µM (inactive) | > 100 µM (inactive) | > 100 µM (inactive) | > 100 µM (inactive) | > 100 µM (inactive) | > 100 µM (inactive) | > 100 µM (inactive) | > 100 µM (inactive) | > 100 µM (inactive) | > 100 µM (inactive) | > 100 | > 100 µM (inactive) | > 100 µM (inactive) | > 100 µM (inactive)
